Source: patent US5658781A, “Insecticidally effective peptides” (priority 1995, dated 1997)

Legend:
[1] = test system: maggot neuromuscular junction; test: Neuromuscular junction EPSP recording in house fly larvae; type: cell-based, Musca domestica
maggot peripheral nerves = test: Extracellular recording from house fly larval peripheral nerves; type: cell-based, Musca domestica
[2] = test system: tobacco budworm (Heliothis virescens); test: Injection paralysis assay in tobacco budworm larvae; type: in vivo
[3] = test system: beet armyworm (Spodoptera exigua); test: Toxin injection PD50 in BAW larvae; type: in vivo
[4] = test system: cabbage looper (Trichoplusia ni); test: Toxin injection PD50 in CL larvae; type: in vivo
mice = type: in vivo; details: i.p., approximate dose 0.9 mg/kg
Protocol: Whole venom, 5 μl, obtained from D. canities as described herein was fatal to mice by intraperitoneal injection (i.p.) in three separate tests. Treated mice were initially indistinguishable from saline controls. About 10 to 15 minutes after injection, treated mice became moderately hyperactive, displaying a characteristic hopping gait; this was followed by a short period of uncoordination, labored breathing and convulsions. Death followed within 2 minutes of the initial onset of symptoms.
Residue 9.2 was injected into the intracerebral ventricles in four mice (approx. 28 gm) at a dose of approximately 30 μg per animal (approximately 1 mg/kg).
To characterize the vertebrate toxicity of this venom, pooled reversed-phase fractions of whole venom were tested in mice (FIG. 1). Fraction 2 comprised the components with tobacco budworm (TBW) activity.

Row | Molecule | effect on sensitivity to subsequent treatment with 100 nM DK 9.2 [1] | effect on the EPSP [1] | effect on DK 9.2-induced increase in nerve discharge (maggot peripheral nerves) | PD50 ([2]; TBW larvae, injection, probit analysis) | insects exhibiting paralysis after 24 hours ([2]; TBW, 5.0 WVE/g, 24 hours) | insects exhibiting paralysis after 48 hours ([2]; TBW, 5.0 WVE/g, 48 hours) | PD50 [3] | PD50 [4] | effects in mice within 24 hours (mice)
1 | NC1=N[C@H](O)[C@H]2[C@H]3O[C@]4(O)O[C@@H]([C@@H](O)[C@@]2(N1)[C@@H]4O)[C@]3(O)CO [TTX, tetrodotoxin] | rendered the preparation insensitive | rapidly blocked | rapidly blocked | – | – | – | – | – | –
2 | DK 11: Insecticidal peptide isolated from Diguetia canities venom, SEQ ID NO:3, about 6700 or 6740 daltons (AKDGDVKGPAGCMKYKSGDCRGKTCCDQQ) | – | – | – | 0.71 nmol/gm | 80% | 60% | < 1.5 nmol/gm | 0.86 nmol/gm | no effects seen
